Measured values taken from patent publication US10975119B2, “Selective cysteine protease inhibitors and uses thereof” (Genesis Technologies Limited, priority 2011, dated 2021).
Read-outs that look alike come from different tables or passages of the source.

What was measured:
Assay type in all cases: biochemical
[1] = target: T1, Caspase-8 (Homo sapiens, UniProt Q14790); test: Caspase-8 inhibitor screening assay (BioVision kit, IETD-AFC)
T1 construct: mixing the compounds with the respective active caspases; purchased BioVision K158-100
Method in brief: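 Each caspase cleaved its own AFC-labelled peptide substrate, and released AFC was read by fluorescence. % inhibition came from RFU against an uninhibited control.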

[2] = target: T2, Caspase-6 (Homo sapiens, UniProt P55212); test: Caspase-6 inhibitor screening assay (BioVision kit, VEID-AFC)
T2 construct: mixing the compounds with the respective active caspases; purchased BioVision K156-100
T2 sequence (P55212 24-179 limits assumed): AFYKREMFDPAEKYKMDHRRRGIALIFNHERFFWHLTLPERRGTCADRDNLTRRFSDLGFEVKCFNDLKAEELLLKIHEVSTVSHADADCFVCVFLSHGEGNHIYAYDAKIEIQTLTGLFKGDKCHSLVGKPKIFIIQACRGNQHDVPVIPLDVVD
T2 sequence (P55212 194-293 limits assumed): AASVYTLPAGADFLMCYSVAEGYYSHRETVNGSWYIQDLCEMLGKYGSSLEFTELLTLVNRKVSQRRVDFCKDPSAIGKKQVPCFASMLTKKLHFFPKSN
Method in brief: (§1)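 Fluorometric read-out of free AFC released from the caspase-specific synthetic substrate. IC50 from concentration series, sometimes narrower.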

[3] = target: T3, Caspase-5 (Homo sapiens, UniProt P51878); test: Caspase-5 inhibitor screening assay (BioVision kit, WEHD-AFC); conditions: for IC50: read-out: IC50 Casp5
T3 construct: mixing the compounds with the respective active caspases; purchased BioVision K155-100
T3 sequence (P51878 137-327 limits assumed): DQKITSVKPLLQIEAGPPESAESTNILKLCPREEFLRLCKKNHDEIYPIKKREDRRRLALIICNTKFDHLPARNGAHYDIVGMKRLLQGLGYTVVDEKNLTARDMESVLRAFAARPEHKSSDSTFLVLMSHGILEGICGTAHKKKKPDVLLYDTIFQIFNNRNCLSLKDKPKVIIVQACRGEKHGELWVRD
T3 sequence (P51878 347-434 limits assumed): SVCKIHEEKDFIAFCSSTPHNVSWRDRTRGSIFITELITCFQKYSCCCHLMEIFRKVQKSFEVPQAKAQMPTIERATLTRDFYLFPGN
Method in brief: as §1

[4] = target: T4, Caspase-10 (Homo sapiens, UniProt Q92851); test: Caspase-10 inhibitor screening assay (BioVision kit, AEVD-AFC)
T4 construct: mixing the compounds with the respective active caspases; purchased BioVision K160-100
T4 sequence (Q92851 220-415 limits assumed): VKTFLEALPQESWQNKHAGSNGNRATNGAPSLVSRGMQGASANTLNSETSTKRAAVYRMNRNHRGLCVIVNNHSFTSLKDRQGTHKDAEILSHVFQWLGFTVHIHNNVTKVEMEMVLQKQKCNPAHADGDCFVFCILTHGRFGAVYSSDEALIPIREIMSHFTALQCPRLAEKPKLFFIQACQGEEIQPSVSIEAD
T4 sequence (Q92851 416-521 limits assumed): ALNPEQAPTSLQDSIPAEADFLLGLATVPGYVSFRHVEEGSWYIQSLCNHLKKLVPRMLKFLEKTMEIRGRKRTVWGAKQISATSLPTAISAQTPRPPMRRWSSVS
Method in brief: as §1

[5] = target: T5, Caspase-3 (Homo sapiens, UniProt P42574); test: Caspase-3 inhibitor screening assay (BioVision kit, DEVD-AFC); conditions: for IC50: read-out: IC50 Casp3
T5 construct: mixing the compounds with the respective active caspases; purchased BioVision K153-100
T5 sequence (P42574 29-175 limits assumed): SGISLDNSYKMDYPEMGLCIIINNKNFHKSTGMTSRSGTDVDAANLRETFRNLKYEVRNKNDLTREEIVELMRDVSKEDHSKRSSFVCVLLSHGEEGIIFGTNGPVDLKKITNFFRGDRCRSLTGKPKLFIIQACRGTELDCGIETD
T5 sequence (P42574 176-277 limits assumed): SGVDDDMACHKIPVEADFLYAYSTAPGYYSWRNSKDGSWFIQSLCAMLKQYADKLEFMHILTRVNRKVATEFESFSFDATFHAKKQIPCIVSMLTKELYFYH
Method in brief: as §1

[6] = target: T6, Caspase-1 (Homo sapiens, UniProt P29466); test: Caspase-1 inhibitor screening assay (BioVision kit, YVAD-AFC); conditions: for IC50: read-out: IC50 Casp1
T6 construct: mixing the compounds with the respective active caspases; purchased BioVision K151-100
T6 sequence (P29466 120-297 limits assumed): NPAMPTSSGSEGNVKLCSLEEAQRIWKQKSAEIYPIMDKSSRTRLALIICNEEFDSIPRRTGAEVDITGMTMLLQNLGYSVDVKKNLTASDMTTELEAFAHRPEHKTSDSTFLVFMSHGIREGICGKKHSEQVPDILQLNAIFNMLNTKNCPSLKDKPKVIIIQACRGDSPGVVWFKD
T6 sequence (P29466 317-404 limits assumed): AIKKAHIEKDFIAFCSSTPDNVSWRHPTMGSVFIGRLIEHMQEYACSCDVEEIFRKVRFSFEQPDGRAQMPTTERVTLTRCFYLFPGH
Method in brief: as §1

[7] = target: T7, Caspase-7 (Homo sapiens, UniProt P55210); test: Caspase-7 inhibitor screening assay (BioVision kit, DEVD-AFC); conditions: for IC50: read-out: IC50 Casp7
T7 construct: mixing the compounds with the respective active caspases; purchased BioVision K157-100
T7 sequence (P55210 24-198 limits assumed): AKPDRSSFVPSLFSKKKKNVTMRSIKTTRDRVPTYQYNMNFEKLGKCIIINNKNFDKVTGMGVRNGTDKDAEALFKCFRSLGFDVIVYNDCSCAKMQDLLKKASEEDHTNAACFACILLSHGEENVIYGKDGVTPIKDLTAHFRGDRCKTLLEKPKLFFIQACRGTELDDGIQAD
T7 sequence (P55210 207-303 limits assumed): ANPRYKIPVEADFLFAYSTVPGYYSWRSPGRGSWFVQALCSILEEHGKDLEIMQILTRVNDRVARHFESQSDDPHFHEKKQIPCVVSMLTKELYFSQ
Method in brief: as §1

T1 sequence (Q14790 217-374 limits assumed): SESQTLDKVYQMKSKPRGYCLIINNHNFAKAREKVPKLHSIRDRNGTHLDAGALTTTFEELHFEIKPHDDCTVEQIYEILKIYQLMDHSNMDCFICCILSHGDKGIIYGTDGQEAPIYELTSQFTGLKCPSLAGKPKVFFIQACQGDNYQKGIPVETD
T1 sequence (Q14790 385-479 limits assumed): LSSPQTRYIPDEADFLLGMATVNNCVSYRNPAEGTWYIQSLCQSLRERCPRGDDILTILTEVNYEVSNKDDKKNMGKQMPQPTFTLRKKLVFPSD

Row | IC50 ([1]; read-out: IC50 Casp8) [nM] | IC50 ([2]; read-out: IC50 Casp6) [nM] | IC50 [3] [nM] | IC50 ([4]; read-out: IC50 Casp10) [nM] | IC50 [5] [nM] | IC50 [6] [nM] | IC50 [7] [nM] | other results | Structure (SMILES)
1 | 21100 | > 100000 | 1950 | 8050 | > 100000 | 30 | > 100000 | inhibition at 10 µM ([1]; 10 uM, read-out: % Inhibition at 10 uM Casp8): 36%; inhibition at 100 µM ([1]; 100 uM, read-out: % Inhibition at 100 uM Casp8): 89%; inhibition at 10 µM ([2]; read-out: % Inhibition at 10 uM Casp6): 3%; inhibition at 100 µM ([2]; read-out: % Inhibition at 100 uM Casp6): 6%; inhibition at 10 µM ([3]; read-out: % Inhibition at 10 uM Casp5): 88%; inhibition at 100 µM ([3]; read-out: % Inhibition at 100 uM Casp5): 99%; inhibition at 10 µM ([4]; 10 uM, read-out: % Inhibition at 10 uM Casp10): 59%; inhibition at 100 µM ([4]; 100 uM, read-out: % Inhibition at 100 uM Casp10): 97%; inhibition at 10 µM ([5]; read-out: % Inhibition at 10 uM Casp3): 0%; inhibition at 100 µM ([5]; read-out: % Inhibition at 100 uM Casp3): 15%; inhibition at 10 µM ([6]; read-out: % Inhibition at 10 uM Casp1): 100%; inhibition at 100 µM ([6]; read-out: % Inhibition at 100 uM Casp1): 100%; inhibition at 10 µM ([7]; 10 uM, read-out: % Inhibition at 10 uM Casp7): 3%; inhibition at 100 µM ([7]; 100 uM, read-out: % Inhibition at 100 uM Casp7): 8% | CCOC(=O)/C=C/[C@H](CC(=O)O)NC(=O)[C@H]1CCCN1C(=O)[C@@H](NC(=O)c1ccc2ccccc2n1)C(C)(C)C [Compound 118, 2-Quinoline carbonyl-t-Leu-Pro-Asp Ethyl Vinyl Ester]
2 | 190 | 290 | 3770 | 30 | 580 | 780 | > 100000 | IC50 ([2]; read-out: inhibition (IC50) against Caspase-6): 293 nM | CCOC(=O)/C=C/[C@H](CC(=O)O)NC(=O)[C@@H](NC(=O)[C@H](CCC(=O)O)NC(=O)[C@@H](NC(=O)OCc1ccccc1)C(C)C)C(C)CC (stereo partly drawn) [Compound 124, Z-Val-Glu-Ile-Asp-Ethyl Vinyl ester]
3 | 80 | 480 | 8580 | – | 2780 | 1000 | > 100000 | IC50 ([1]; read-out: potency (IC50) against caspase-8): 79 nM; IC50 ([4]; read-out: potency (IC50) against caspase-10): 2 nM | CCOC(=O)/C=C/[C@H](CC(=O)O)NC(=O)[C@@H](NC(=O)[C@H](CCC(=O)O)NC(=O)[C@@H](NC(=O)OCc1ccccc1)C(C)C)c1ccccc1 [Compound 126, Z-Val-Glu-Phg-Asp-Ethyl Vinyl ester]
